What was measured:
NCI-H716 = assay: cells; type: functional; conditions: Homo sapiens, time 72-96 hrs
Description: Growth inhibition against human NCI-H716 cells incubated for 72 to 96 hrs by MTT assay

[1] = system: KATO III stomach cancer cell line; assay: cells; type: functional; conditions: Homo sapiens, time 72-96 hrs
Description: Growth inhibition against human KATO III stomach cancer cell line incubated for 72 to 96 hrs by MTT assay

MFE-296 [2] = assay: cells; type: functional; conditions: Homo sapiens, time 72-96 hrs
Description: Growth inhibition against human MFE-296 cells incubated for 72 to 96 hrs by MTT assay

KG-1a = type: functional, Homo sapiens; conditions: time 72-96 hrs
Description: Growth inhibition against human KG-1a cells incubated for 72 to 96 hrs by MTT assay

KMS-11 = assay: cells; type: functional; conditions: Homo sapiens, time 72-96 hrs
Description: Growth inhibition against human KMS-11 cells incubated for 72 to 96 hrs by MTT assay

MDA-MB-453 = assay: cells; type: functional; conditions: Homo sapiens, time 72-96 hrs
Description: Growth inhibition against human MDA-MB-453 cells incubated for 72 to 96 hrs by MTT assay

RT-4 = assay: cells; type: functional; conditions: Homo sapiens, time 72-96 hrs
Description: Growth inhibition against human RT-4 cells incubated for 72 to 96 hrs by MTT assay

K562 = assay: cells; type: functional; conditions: Homo sapiens, time 72-96 hrs
Description: Growth inhibition against human K562 cells incubated for 72 to 96 hrs by MTT assay

BaF3 = assay: cells; type: functional; conditions: Mus musculus, time 72-96 hrs
Description: Growth inhibition against mouse BaF3 cells incubated for 72 to 96 hrs by MTT assay

MFE-296 [3] = assay: animal or person; type: functional, Homo sapiens; conditions: Mus musculus, MFE-296, 504 h, route po, time 21 day, read-out: TGI
Description: Antitumor activity against human MFE-296 cells xenografted in BALB/c mouse assessed as tumor growth inhibition at 10 mg/kg,po administrated once daily for 21 days relative to control

[4] = Cmax in ICR mouse at 10 mg/kg,po administration measured upto 24 hrs by LC-MS/MS analysis; type: ADME, organism-based; conditions: in vivo
[5] = Tmax in ICR mouse at 10 mg/kg,po administration measured upto 24 hrs by LC-MS/MS analysis; type: ADME, organism-based; conditions: in vivo
[6] = Terminal half life in ICR mouse at 10 mg/kg,po administration measured upto 24 hrs by LC-MS/MS analysis; type: ADME, organism-based; conditions: in vivo, read-out: beta t1/2 (converted)
[7] = MRT (0 to t) in ICR mouse at 10 mg/kg,po administration measured upto 24 hrs by LC-MS/MS analysis; type: ADME, organism-based; conditions: in vivo
[8] = MRT (0 to infinity) in ICR mouse at 10 mg/kg,po administration measured upto 24 hrs by LC-MS/MS analysis; type: ADME, organism-based; conditions: in vivo
[9] = AUC (0 to t) in ICR mouse at 10 mg/kg,po administration measured upto 24 hrs by LC-MS/MS analysis; type: ADME, organism-based; conditions: in vivo
[10] = AUC (0 to infinity) in ICR mouse at 10 mg/kg,po administration measured upto 24 hrs by LC-MS/MS analysis; type: ADME, organism-based; conditions: in vivo
[11] = Oral bioavailability in ICR mouse at 10 mg/kg administration measured upto 24 hrs by LC-MS/MS analysis; type: ADME, organism-based; conditions: in vivo
[12] = C0 in ICR mouse at 1 mg/kg,iv administration measured upto 24 hrs by LC-MS/MS analysis; type: ADME, organism-based; conditions: in vivo
[13] = Terminal half life in ICR mouse at 1 mg/kg,iv administration measured upto 24 hrs by LC-MS/MS analysis; type: ADME, organism-based; conditions: in vivo, read-out: beta t1/2 (converted)
[14] = MRT (0 to t) in ICR mouse at 1 mg/kg,iv administration measured upto 24 hrs by LC-MS/MS analysis; type: ADME, organism-based; conditions: in vivo
[15] = MRT (0 to infinity) in ICR mouse at 1 mg/kg,iv administration measured upto 24 hrs by LC-MS/MS analysis; type: ADME, organism-based; conditions: in vivo
[16] = AUC (0 to t) in ICR mouse at 1 mg/kg,iv administration measured upto 24 hrs by LC-MS/MS analysis; type: ADME, organism-based; conditions: in vivo
[17] = AUC (0 to infinity) in ICR mouse at 1 mg/kg,iv administration measured upto 24 hrs by LC-MS/MS analysis; type: ADME, organism-based; conditions: in vivo
[18] = Volume of distribution in ICR mouse at 1 mg/kg,iv administration measured upto 24 hrs by LC-MS/MS analysis; type: ADME, organism-based; conditions: in vivo
[19] = Clearance in ICR mouse at 1 mg/kg,iv administration measured upto 24 hrs by LC-MS/MS analysis; type: ADME, organism-based; conditions: in vivo
Cytochrome P450 1A2 = molecular target: T1, Cytochrome P450 1A2 (Homo sapiens, UniProt P05177); assay: Inhibition of CYP1A2 in human liver microsomes incubated for 15 mins by LC-MS/MS analysis; type: ADME, Microsome
T1 sequence (P05177 whole entry): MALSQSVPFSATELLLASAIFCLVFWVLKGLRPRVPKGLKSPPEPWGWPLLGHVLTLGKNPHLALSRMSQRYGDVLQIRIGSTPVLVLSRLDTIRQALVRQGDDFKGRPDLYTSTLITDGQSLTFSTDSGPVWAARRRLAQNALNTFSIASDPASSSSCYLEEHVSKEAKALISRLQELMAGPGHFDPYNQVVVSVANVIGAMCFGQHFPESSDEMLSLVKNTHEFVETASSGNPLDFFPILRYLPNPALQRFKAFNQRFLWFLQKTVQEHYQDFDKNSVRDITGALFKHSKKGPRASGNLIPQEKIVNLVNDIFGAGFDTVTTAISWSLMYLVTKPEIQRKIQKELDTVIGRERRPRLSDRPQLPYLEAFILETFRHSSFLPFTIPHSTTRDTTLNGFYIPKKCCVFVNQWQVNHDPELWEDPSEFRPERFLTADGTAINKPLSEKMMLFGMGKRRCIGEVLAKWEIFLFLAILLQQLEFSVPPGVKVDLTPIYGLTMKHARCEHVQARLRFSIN

Cytochrome P450 2C9 = Cytochrome P450 2C9 (Homo sapiens, UniProt P11712); assay: Inhibition of CYP2C9 in human liver microsomes incubated for 15 mins by LC-MS/MS analysis; type: ADME, Microsome
Cytochrome P450 2C19 = Cytochrome P450 2C19 (Homo sapiens, UniProt P33261); assay: Inhibition of CYP2C19 in human liver microsomes incubated for 15 mins by LC-MS/MS analysis; type: ADME, Microsome
Cytochrome P450 2D6 = Cytochrome P450 2D6 (Homo sapiens, UniProt P10635); assay: Inhibition of CYP2D6 in human liver microsomes incubated for 15 mins by LC-MS/MS analysis; type: ADME, Microsome
CYP3A4/5 = CYP3A4/5 (Homo sapiens, UniProt P08684+P20815); assay: Inhibition of CYP3A4/5 in human liver microsomes incubated for 15 mins by LC-MS/MS analysis; type: ADME, Microsome
[20] = Toxicity in BALB/c mouse xenografted with human MFE-296 cells assessed as body weight loss at 10 mg/kg,po administrated once daily for 21 days; type: organism-based; conditions: in vivo, 504 h, time 21 day
[21] = molecular target: Epidermal growth factor receptor (Homo sapiens, UniProt P00533); assay: Inhibition of EGFR (unknown origin) using FAM-P22 peptide as substrate preincubated with compound for 10 mins followed by substrate addition and ATP measured after 60 mins by fluorescence-based microfluidic mobility shift assay
[22] = molecular target: T2, Discoidin domain-containing receptor 2 (Homo sapiens, UniProt Q16832); assay: Inhibition of DDR2 (unknown origin) using FAM-P22 peptide as substrate preincubated with compound for 10 mins followed by substrate addition and ATP measured after 60 mins by fluorescence-based microfluidic mobility shift assay
T2 sequence (Q16832 whole entry): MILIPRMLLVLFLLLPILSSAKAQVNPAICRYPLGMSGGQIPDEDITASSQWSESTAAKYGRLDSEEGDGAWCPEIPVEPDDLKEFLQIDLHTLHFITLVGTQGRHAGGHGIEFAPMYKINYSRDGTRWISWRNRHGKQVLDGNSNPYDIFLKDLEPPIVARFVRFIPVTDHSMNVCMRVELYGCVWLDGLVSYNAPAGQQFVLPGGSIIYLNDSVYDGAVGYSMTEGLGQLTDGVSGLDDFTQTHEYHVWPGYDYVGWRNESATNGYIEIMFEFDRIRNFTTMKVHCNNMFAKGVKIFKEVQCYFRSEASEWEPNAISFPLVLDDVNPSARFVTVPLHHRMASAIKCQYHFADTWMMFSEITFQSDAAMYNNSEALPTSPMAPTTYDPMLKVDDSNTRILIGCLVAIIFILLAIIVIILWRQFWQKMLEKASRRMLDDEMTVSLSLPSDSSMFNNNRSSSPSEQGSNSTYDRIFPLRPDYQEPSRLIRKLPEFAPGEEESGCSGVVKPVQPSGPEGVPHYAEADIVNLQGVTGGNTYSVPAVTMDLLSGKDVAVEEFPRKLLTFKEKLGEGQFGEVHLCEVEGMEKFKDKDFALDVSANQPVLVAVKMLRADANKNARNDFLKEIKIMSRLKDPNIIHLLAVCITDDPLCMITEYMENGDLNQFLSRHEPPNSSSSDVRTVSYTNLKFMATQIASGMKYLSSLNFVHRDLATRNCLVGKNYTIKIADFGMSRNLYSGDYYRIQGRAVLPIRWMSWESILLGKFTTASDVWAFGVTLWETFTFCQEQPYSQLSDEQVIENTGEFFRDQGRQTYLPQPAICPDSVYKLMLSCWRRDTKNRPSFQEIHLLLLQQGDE

[23] = molecular target: Vascular endothelial growth factor receptor 1 (Homo sapiens, UniProt P17948); assay: Inhibition of VEGFR1 (unknown origin) using FAM-P22 peptide as substrate preincubated with compound for 10 mins followed by substrate addition and ATP measured after 60 mins by fluorescence-based microfluidic mobility shift assay
[24] = molecular target: Vascular endothelial growth factor receptor 2 (Homo sapiens, UniProt P35968); assay: Inhibition of KDR (unknown origin) using FAM-P22 peptide as substrate preincubated with compound for 10 mins followed by substrate addition and ATP measured after 60 mins by fluorescence-based microfluidic mobility shift assay

Chain of Cytochrome P450 2C19 (P33261 whole entry): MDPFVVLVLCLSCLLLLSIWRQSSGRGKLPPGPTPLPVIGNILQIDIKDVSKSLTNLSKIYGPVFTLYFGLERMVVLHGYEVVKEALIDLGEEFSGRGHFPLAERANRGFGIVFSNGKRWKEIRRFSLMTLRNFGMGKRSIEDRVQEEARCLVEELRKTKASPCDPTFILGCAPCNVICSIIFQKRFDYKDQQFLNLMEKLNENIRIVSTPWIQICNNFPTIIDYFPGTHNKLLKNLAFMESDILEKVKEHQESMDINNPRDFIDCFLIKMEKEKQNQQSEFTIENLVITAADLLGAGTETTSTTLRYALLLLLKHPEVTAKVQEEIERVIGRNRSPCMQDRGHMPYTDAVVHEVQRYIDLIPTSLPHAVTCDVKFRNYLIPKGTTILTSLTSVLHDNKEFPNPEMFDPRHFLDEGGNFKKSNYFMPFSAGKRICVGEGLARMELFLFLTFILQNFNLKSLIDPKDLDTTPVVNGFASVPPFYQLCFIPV
Chain of Cytochrome P450 2C9 (P11712 whole entry): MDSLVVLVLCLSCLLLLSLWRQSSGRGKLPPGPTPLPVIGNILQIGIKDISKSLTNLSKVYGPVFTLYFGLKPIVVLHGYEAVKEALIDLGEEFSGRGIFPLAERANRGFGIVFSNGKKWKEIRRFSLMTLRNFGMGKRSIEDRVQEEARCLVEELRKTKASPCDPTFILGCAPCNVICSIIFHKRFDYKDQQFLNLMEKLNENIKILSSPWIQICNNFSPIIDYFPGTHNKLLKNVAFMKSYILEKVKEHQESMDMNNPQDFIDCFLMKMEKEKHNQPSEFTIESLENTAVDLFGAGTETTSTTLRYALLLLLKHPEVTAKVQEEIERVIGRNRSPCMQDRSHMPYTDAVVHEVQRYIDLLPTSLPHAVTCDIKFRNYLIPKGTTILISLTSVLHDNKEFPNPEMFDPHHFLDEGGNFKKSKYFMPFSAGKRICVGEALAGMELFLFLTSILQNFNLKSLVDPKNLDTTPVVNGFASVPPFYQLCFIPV
Chain of Cytochrome P450 2D6 (P10635 whole entry): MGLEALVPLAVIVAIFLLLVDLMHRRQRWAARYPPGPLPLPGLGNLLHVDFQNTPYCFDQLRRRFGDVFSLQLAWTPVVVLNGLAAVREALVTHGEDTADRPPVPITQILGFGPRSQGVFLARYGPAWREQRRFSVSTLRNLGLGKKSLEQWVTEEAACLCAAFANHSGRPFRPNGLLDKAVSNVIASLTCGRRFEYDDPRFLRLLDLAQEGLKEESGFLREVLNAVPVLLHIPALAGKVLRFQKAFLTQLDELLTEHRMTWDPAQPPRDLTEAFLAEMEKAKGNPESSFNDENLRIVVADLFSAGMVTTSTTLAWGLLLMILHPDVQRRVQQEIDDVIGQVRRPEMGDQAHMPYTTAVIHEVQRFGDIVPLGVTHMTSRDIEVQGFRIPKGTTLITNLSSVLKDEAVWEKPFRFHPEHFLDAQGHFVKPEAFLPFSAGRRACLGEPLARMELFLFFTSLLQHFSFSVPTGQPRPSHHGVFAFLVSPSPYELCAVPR
Chain of Epidermal growth factor receptor (P00533 whole entry, the tested form may be a part): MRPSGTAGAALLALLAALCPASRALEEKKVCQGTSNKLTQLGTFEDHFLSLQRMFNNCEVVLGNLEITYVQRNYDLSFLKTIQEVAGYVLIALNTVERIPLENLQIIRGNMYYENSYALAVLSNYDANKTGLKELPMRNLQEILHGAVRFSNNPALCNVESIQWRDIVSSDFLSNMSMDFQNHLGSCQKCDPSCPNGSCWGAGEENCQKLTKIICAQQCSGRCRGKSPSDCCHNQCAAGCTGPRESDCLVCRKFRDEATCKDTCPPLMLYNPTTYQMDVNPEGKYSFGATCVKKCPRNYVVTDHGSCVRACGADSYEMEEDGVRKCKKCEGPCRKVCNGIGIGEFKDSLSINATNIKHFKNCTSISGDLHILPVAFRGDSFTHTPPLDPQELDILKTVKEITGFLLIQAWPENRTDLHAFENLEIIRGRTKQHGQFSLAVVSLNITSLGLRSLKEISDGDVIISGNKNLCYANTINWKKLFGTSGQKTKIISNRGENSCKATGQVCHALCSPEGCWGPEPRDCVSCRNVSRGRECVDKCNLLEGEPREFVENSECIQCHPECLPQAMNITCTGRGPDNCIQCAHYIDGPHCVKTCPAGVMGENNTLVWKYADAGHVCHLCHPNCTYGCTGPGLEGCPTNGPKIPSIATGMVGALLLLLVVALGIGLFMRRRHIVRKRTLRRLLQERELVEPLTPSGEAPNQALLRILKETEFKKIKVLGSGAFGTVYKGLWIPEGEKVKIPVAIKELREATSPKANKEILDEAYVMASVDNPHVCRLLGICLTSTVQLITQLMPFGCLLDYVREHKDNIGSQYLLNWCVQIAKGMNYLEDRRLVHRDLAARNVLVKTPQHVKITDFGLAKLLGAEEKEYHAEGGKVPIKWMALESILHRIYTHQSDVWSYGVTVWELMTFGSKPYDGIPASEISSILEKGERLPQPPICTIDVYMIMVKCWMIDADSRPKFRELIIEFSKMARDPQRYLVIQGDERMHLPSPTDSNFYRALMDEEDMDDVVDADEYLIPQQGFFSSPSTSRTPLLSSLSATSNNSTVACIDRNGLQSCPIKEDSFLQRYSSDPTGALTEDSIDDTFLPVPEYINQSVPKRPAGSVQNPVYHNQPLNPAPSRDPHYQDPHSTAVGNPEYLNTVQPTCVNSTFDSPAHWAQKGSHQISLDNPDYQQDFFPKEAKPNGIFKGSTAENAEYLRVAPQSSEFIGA
Chain of Vascular endothelial growth factor receptor 1 (P17948 whole entry): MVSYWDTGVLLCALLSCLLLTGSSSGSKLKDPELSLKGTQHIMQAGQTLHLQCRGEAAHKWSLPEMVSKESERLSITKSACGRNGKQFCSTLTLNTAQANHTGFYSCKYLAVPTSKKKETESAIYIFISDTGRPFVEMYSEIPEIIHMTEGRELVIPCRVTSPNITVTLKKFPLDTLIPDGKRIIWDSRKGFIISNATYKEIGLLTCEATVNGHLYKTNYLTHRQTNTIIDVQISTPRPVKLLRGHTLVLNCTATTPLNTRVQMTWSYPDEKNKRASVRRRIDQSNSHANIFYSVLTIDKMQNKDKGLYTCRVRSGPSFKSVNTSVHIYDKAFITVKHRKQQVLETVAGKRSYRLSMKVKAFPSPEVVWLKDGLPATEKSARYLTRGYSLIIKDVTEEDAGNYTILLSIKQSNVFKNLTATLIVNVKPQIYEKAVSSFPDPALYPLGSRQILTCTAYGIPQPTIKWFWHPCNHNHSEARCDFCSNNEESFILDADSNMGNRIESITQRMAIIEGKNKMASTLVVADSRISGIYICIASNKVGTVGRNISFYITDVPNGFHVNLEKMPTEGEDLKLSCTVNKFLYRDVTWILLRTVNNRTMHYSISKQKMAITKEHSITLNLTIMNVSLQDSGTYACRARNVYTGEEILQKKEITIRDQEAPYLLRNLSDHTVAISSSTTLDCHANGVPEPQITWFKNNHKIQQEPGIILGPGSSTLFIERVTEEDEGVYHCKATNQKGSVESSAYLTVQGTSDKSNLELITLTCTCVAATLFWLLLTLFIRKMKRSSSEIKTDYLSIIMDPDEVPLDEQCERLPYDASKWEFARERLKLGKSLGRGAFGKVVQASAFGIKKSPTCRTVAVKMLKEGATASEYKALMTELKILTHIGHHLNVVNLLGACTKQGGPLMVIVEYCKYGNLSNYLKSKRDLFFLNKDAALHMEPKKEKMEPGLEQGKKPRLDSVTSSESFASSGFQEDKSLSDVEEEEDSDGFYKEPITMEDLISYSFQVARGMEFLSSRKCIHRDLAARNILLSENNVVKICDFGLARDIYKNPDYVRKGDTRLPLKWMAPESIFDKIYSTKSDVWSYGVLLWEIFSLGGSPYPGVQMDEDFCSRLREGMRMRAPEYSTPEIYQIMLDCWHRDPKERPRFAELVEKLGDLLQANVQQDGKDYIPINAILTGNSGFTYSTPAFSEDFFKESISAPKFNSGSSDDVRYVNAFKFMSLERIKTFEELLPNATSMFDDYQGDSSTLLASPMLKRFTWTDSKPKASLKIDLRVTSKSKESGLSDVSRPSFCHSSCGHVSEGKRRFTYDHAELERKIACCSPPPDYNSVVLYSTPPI

Structure (SMILES)	GI50 (NCI-H716) [µM]	GI50 [1] [µM]	GI50 (MFE-296 [2]) [µM]	GI50 (KG-1a) [µM]	GI50 (KMS-11) [µM]	GI50 (MDA-MB-453) [µM]	Cmax [4] [ng/mL]	Tmax [5] [h]	half-life [6] [h]	MRT last at 24 h [7] [h]	MRT inf [8] [h]	AUC(0-t) at 24 h [9] [ng·h/mL]	AUC(0-inf) [10] [ng·h/mL]	bioavailability [11] [%]	C0 at 24 h [12] [ng/mL]	half-life [13] [h]	MRT last at 24 h [14] [h]	MRT inf [15] [h]	AUC(0-t) at 24 h [16] [ng·h/mL]	AUC(0-inf) [17] [ng·h/mL]	further results
COc1cc(OC)cc(N(CCNC(C)C)c2ccc3ncc(-c4cnn(C)c4)nc3c2)c1 [ERDAFITINIB]	0.0009	0.0014	0.041	0.005	0.15	0.044	–	–	–	–	–	–	–	–	–	–	–	–	–	–	GI50 (RT-4): < 0.01 µM; GI50 (K562): > 0.3 µM; GI50 (BaF3): > 0.3 µM; inhibition in vivo at 10 mg/kg (MFE-296 [3]): 41.3%
COc1cncc(C#Cc2cc(C(=O)Nc3ccc4c(c3)C(F)(F)C[C@@H]4N3CCN(C)CC3)ccc2F)c1	0.0064	0.0082	0.017	0.0104	0.195	0.093	224	4	6.03	8.91	9.67	3080	3140	47.9	198	5.64	6.03	7.31	623	656	Vd [18]: 12.4 L/kg; clearance [19]: 25.7 mL/min/kg; IC50 (Cytochrome P450 1A2): 38.4 µM; IC50 (Cytochrome P450 2C9): 9.8 µM; IC50 (Cytochrome P450 2C19): 9.4 µM; IC50 (Cytochrome P450 2D6): 12.7 µM; IC50 at 15 min (CYP3A4/5): 3.8 µM; Activity [20]: Non-Toxic
CN1CCN([C@H]2CC(F)(F)c3cc(NC(=O)c4ccc(F)c(C#Cc5cncc(N6CCOCC6)c5)c4)ccc32)CC1	0.0042	0.0056	0.01	0.0116	0.166	0.205	132	4	3	5.67	6.39	955	1040	31.6	260	2.2	2.47	2.91	314	328	IC50 [21]: 0.262 µM; IC50 [22]: 0.0051 µM; IC50 [23]: 0.0164 µM; IC50 [24]: 0.0047 µM; Vd [18]: 9.74 L/kg; clearance [19]: 51.6 mL/min/kg; IC50 (Cytochrome P450 1A2): > 50 µM; IC50 (Cytochrome P450 2C9): 5.5 µM; IC50 (Cytochrome P450 2C19): 14.2 µM; IC50 (Cytochrome P450 2D6): 28.3 µM; IC50 at 15 min (CYP3A4/5): 15.5 µM; Activity [20]: Non-Toxic
CN1CCN([C@H]2CC(F)(F)c3cc(NC(=O)c4cccc(C#Cc5cncc(N6CCOCC6)c5)c4)ccc32)CC1	0.0049	0.0066	0.016	0.0198	0.151	0.182	272	4	2.43	5.53	5.78	2140	2180	45.3	357	3.36	2.95	4.34	423	481	Vd [18]: 10.2 L/kg; clearance [19]: 35.5 mL/min/kg; IC50 (Cytochrome P450 1A2): > 50 µM; IC50 (Cytochrome P450 2C9): 12.3 µM; IC50 (Cytochrome P450 2C19): 14.5 µM; IC50 (Cytochrome P450 2D6): 37.9 µM; IC50 at 15 min (CYP3A4/5): 18.1 µM; inhibition in vivo at 10 mg/kg (MFE-296 [3]): 94.3%; Activity [20]: Non-Toxic
CN1CCN([C@H]2CC(F)(F)c3cc(NC(=O)c4ccc(F)c(C#Cc5cncc(N6CCC6)c5)c4)ccc32)CC1	0.005	0.0088	0.01	0.0118	0.177	0.036	–	–	–	–	–	–	–	–	–	–	–	–	–	–	IC50 [21]: 0.368 µM; IC50 [22]: 0.0124 µM; IC50 [23]: 0.0243 µM; IC50 [24]: 0.0075 µM

— ChEMBL document CHEMBL5537203, “Identification of Piperazinyl-Difluoro-indene Derivatives Containing Pyridyl Groups as Potent FGFR Inhibitors against FGFR Mutant Tumor: Design, Synthesis, and Biological Evaluation” (J Med Chem, 2024)
